Reference: the supplement of paper PMC11061612

Tests used:
Assay in all cases: combination Emax (second highest fraction inhibited in the dose matrix, 72 h); higher = more inhibition; extreme values may be limits of the assay
[1] = tested on: RCC-JW (Kidney Carcinoma)
How it was run: (§1)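 After 24 hours at 37°C and 5% CO2 in 1536-well plates, cells in DMEM/F12 or RPMI plus 10% FBS received two-drug dose matrices for 72 hours. Viability came from CellTiter-Glo 2.0 luminescence and was scaled as inhibition, anchored at 0 by vehicle wells and at 1 by blank wells. Combination Emax is taken as the second-highest inhibition in the matrix, and Bliss excess as the observed combination effect less EA + EB − EA·EB, with EA and EB the single-agent effects.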

[2] = tested on: MONO-MAC-6 (Acute Myeloid Leukemia)
How it was run: as §1

[3] = tested on: PL4 (Pancreatic Carcinoma)
How it was run: as §1

[4] = tested on: LCLC-103H (Non-Small Cell Lung Carcinoma)
How it was run: as §1

[5] = tested on: NCI-H3118 (Head and Neck Carcinoma)
How it was run: as §1

[6] = tested on: MDA-MB-415 (Breast Carcinoma)
How it was run: as §1

[7] = tested on: Raji (Burkitt's Lymphoma)
How it was run: as §1

[8] = tested on: MOLP-8 (Plasma Cell Myeloma)
How it was run: as §1

NB1 (Neuroblastoma) = tested on: NB1 (Neuroblastoma)
How it was run: as §1

[9] = tested on: T84 (Colorectal Carcinoma)
How it was run: as §1

[10] = tested on: P32-ISH (Burkitt's Lymphoma)
How it was run: as §1

[11] = tested on: SiHa (Cervical Carcinoma)
How it was run: as §1

[12] = tested on: MS-1 (Small Cell Lung Carcinoma)
How it was run: as §1

[13] = tested on: HT-1080 (Other Solid Carcinomas)
How it was run: as §1

[14] = tested on: PA-TU-8988T (Pancreatic Carcinoma)
How it was run: as §1

[15] = tested on: P30-OHK (B-Lymphoblastic Leukemia)
How it was run: as §1

[16] = tested on: SUP-M2 (T-Cell Non-Hodgkin's Lymphoma)
How it was run: as §1

AM-38 (Glioblastoma) = tested on: AM-38 (Glioblastoma)
How it was run: as §1

[17] = tested on: IA-LM (Non-Small Cell Lung Carcinoma)
How it was run: as §1

KALS-1 (Glioblastoma) = tested on: KALS-1 (Glioblastoma)
How it was run: as §1

SMILES | combination Emax [1] | combination Emax [2] | combination Emax [3] | combination Emax [4] | combination Emax [5] | combination Emax [6] | combination Emax [7] | combination Emax [8] | combination Emax (NB1 (Neuroblastoma)) | combination Emax [9] | combination Emax [10] | combination Emax [11] | combination Emax [12] | combination Emax [13] | combination Emax [14] | combination Emax [15] | combination Emax [16] | combination Emax (AM-38 (Glioblastoma)) | combination Emax [17] | combination Emax (KALS-1 (Glioblastoma))
COc1nnc2ccc(N3CCC(c4ccc(OCCN5CCN(C)C(=O)[C@H]5C)cc4)CC3)nn12 [AZD5153] + C=CCn1c(=O)c2cnc(Nc3ccc(N4CCN(C)CC4)cc3)nc2n1-c1cccc(C(C)(C)O)n1 [AZD1775] (first compound max 1 µM, partner max 1 µM) | 0.382 | 0.989 | 0.662 | 0.549 | 0.754 | 0.44 | 0.711 | 0.956 | 0.842 | 0.349 | 0.982 | 0.621 | 0.964 | 0.522 | 0.778 | 1 | 0.996 | 0.353 | 0.348 | 0.723
NC1(C(=O)N[C@@H](CCO)c2ccc(Cl)cc2)CCN(c2ncnc3[nH]ccc23)CC1 [Capivasertib] + CC(C)n1c(=O)n(C)c2cnc3cc(F)c(-c4ccc(OCCCN5CCCCC5)nc4)cc3c21 [AZD1390] (first compound max 10 µM, 7x7, partner max 0.3 µM) | 0.387 | 0.594 | 0.24 | 0.267 | 0.247 | 0.846 | 0.185 | 0.452 | 0.626 | 0.367 | 0.557 | 0.241 | 0.307 | 0.194 | 0.278 | 0.176 | 0.19 | 0.17 | 0.263 | 0.41
COc1nnc2ccc(N3CCC(c4ccc(OCCN5CCN(C)C(=O)[C@H]5C)cc4)CC3)nn12 [AZD5153] + Cn1cnc2c(F)c(Nc3ccc(Br)cc3Cl)c(C(=O)NOCCO)cc21 [Selumetinib] (first compound max 1 µM, 7x7, partner max 10 µM) | 0.3 | 0.986 | 0.851 | 0.454 | 0.63 | 0.429 | 0.535 | 0.98 | 0.445 | 0.483 | 0.65 | 0.628 | 0.817 | 0.596 | 0.778 | 0.999 | 1 | 0.659 | 0.457 | 0.738
CN(CCO)CC[C@H](CSc1ccccc1)Nc1ccc(S(=O)(=O)NC(=O)c2ccc(N3CCC([C@@H](O)c4ccccc4-c4ccc(Cl)cc4)CC3)cc2)cc1S(=O)(=O)C(F)(F)F [AZD4320] + Cc1cc2ncnn2cc1Nc1ncc2c(n1)n(C1CCOCC1)c(=O)n2C [AZD7648] (first compound max 1 µM, 7x7, partner max 10 µM) | 0.566 | 0.393 | 0.421 | 0.223 | 0.0876 | 0.749 | 0.202 | 0.444 | 0.191 | 0.0764 | 0.193 | 0.12 | 0.586 | 0.535 | 0.23 | 0.982 | 0.47 | 0.811 | 0.488 | 0.343
COc1cccc(OCCCN)c1-c1cc(Nc2cnc(C#N)cn2)n[nH]1 [Prexasertib] + CCc1c2c(nc3ccc(O)cc13)-c1cc3c(c(=O)n1C2)COC(=O)[C@]3(O)CC [SN-38] (first compound max 1 µM, 7x7, partner max 0.3 µM) | 0.637 | 1 | 0.877 | 0.932 | 0.872 | 0.538 | 0.983 | 0.847 | 0.912 | 0.866 | 1 | 0.578 | 0.987 | 0.651 | 0.921 | 0.995 | 1 | 0.891 | 0.867 | 0.951
Cc1c2c(nn1C)CSCc1cc(n(C)n1)CSc1cc(c3ccccc3c1)OCCCc1c(C(=O)O)n(C)c3c-2c(Cl)ccc13 [AZD5991] + C1CN(CCC1(C(=O)N[C@@H](CCO)C2=CC=C(C=C2)Cl)N)C3=NC=NC4=C3C=CN4 [Capivasertib] (first compound max 1 µM, 7x7, partner max 3 µM) | 0.208 | 1 | 0.339 | 0.242 | 0.245 | 0.801 | 0.692 | 1 | 0.507 | 0.0983 | 1 | 0.23 | 0.524 | 0.139 | 0.34 | 0.71 | 1 | 0.494 | 0.15 | 0.469
NC1(C(=O)N[C@@H](CCO)c2ccc(Cl)cc2)CCN(c2ncnc3[nH]ccc23)CC1 [Capivasertib] + C[C@@H]1COCCN1C2=NC(=NC(=C2)C3(CC3)[S@](=N)(=O)C)C4=C5C=CNC5=NC=C4 [AZD6738] (first compound max 10 µM, 7x7, partner max 10 µM) | 0.635 | 0.917 | 0.777 | 0.524 | 0.603 | 0.846 | 0.724 | 0.85 | 0.853 | 0.68 | 0.927 | 0.413 | 0.747 | 0.435 | 0.625 | 0.936 | 1 | 0.7 | 0.324 | 0.784
